From patent US20070270464A1, “PRODRUGS OF CURCUMIN ANALOGS” (priority 2006, published 2007)

Experiments:
[1] = background statement; cited from earlier work
[2] = background statement; cited from earlier work; remark: listed apart in the source
[3] = tested on: DU-145 human prostate cancer cells; conditions: DU-145 cells, background statement; cited from earlier work
[4] = tested on: MDA-MB-231 human breast cancer cells; conditions: MDA-MB-231 cells, background statement; cited from earlier work
[5] = tested on: MDA-MB-435 breast cancer cells; assay: Photostability: cytotoxicity of solutions kept under room light, Neutral Red assay; type: cell-based, human; conditions: EF24-GSH: 10 mM in sterile water, up to 48 hours under room light, FIG. 3; EF24: diluted aqueous solution, overnight
Protocol: MDA-MB-435 breast cancer cells were seeded at 2×10^4 per well in a 96-well plate with DMEM medium supplemented with 10% FBS, plus antibiotics penicillin and streptomycin. After 24 hours, cells were treated with EF24-GSH in the presence of the above growth medium. EF24-GSH solutions were made fresh at 10 mM with sterile water and placed under room light in clear Eppendorf tubes for 30 min, 24 hours and 48 hours, respectively, before adding to the cells. Cell viability was determined after 48 hours of treatment with EF24-GSH conjugate using the Neutral Red assay.

[6] = Photostability: appearance of aqueous solution under room light; type: physicochemical; conditions: EF24-GSH: after 48 hours under room light; EF24: diluted aqueous solution, overnight
[7] = tested on: tumor cell growth; conditions: background statement; cited from earlier work

colour of the solution under room light [6]: turns dark overnight
SMILES: CC(=O)O.O=C1C(=Cc2ccccc2F)CNCC1=Cc1ccccc1F [EF24, 3,5-Bis-(2-fluorobenzylidene)-piperidin-4-one, acetic acid salt]
photostability [1]: poor photostability
water solubility [1]: relatively insoluble in water
toxicity [2]: relatively little toxicity
cell cycle arrest [3]: G2/M arrest
cell cycle arrest [4]: G2/M arrest
cytotoxicity after exposure of the solution to room light [5]: severely compromised
inhibition of tumor cell growth, potency compared with cisplatin [7]: higher potency than cisplatin
